Test results taken from patent US12599590B2 (TriviumVet DAC, priority 2019, dated 2026).

Legend:
[1] = cited from earlier work
[2] = typical gastric pH range; cited from earlier work
[3] = Feline repeat dose toxicokinetic study of oral enteric-coated formulations; type: in vivo; settings: whole blood, cats, oral enteric-coated formulation, Mean; for AUC(0-t): read-out: AUC0-72
Procedure: This represents a first-in-species repeat dose test toxicokinetic study in cats. Pharmacokinetic sampling was performed after the first and last doses.

[4] = Canine pharmacokinetics of enteric coated formulations at 0.15 mg/kg (T1) and 0.75 mg/kg (T5); type: in vivo; settings: dogs, oral enteric coated formulation; for AUC(0-inf) / AUC(0-t) / Cmax / Tmax / half-life: dog, blood, po
healthy dogs = settings: 0.05 or 0.1 mg/kg orally three times per week, 10 weeks; cited from earlier work
[5] = 0.15 mg/kg, 0.15 mg/kg three times a week, Day 26, whole blood
[6] = 0.15 mg/kg, 0.15 mg/kg, Day 0, whole blood
[7] = 0.45 mg/kg, 0.45 mg/kg three times a week, Day 26, whole blood
[8] = 0.45 mg/kg, 0.45 mg/kg, Day 0, whole blood
[9] = 0.75 mg/kg, 0.75 mg/kg three times a week, Day 26, whole blood
[10] = 0.75 mg/kg, 0.75 mg/kg, Day 0, whole blood
[11] = 0.15 mg/kg, T1 0.15 mg/kg, Arith. Mean
[12] = 0.15 mg/kg, T1 0.15 mg/kg, Median
[13] = 0.75 mg/kg, T5 0.75 mg/kg, Arith. Mean
[14] = 0.75 mg/kg, T5 0.75 mg/kg, Median

- AUC(0-inf) [4, 11]: 42.7 ng·h/mL
- AUC(0-t) [4, 11]: 40.8 ng·h/mL
- Cmax [4, 11]: 2.23 ng/mL
- Tmax [4, 11]: 1.83 h
- half-life [4, 11]: 16.4 h
- AUC(0-inf) [4, 12]: 38.5 ng·h/mL
- AUC(0-t) [4, 12]: 45.2 ng·h/mL
- Cmax [4, 12]: 2.17 ng/mL
- Tmax [4, 12]: 2 h
- half-life [4, 12]: 13.6 h
- AUC(0-inf) [4, 13]: 102 ng·h/mL
- AUC(0-t) [4, 13]: 111 ng·h/mL
- Cmax [4, 13]: 4.41 ng/mL
- Tmax [4, 13]: 2.17 h
- half-life [4, 13]: 20.2 h
- AUC(0-inf) [4, 14]: 98.4 ng·h/mL
- AUC(0-t) [4, 14]: 96.9 ng·h/mL
- Cmax [4, 14]: 3.14 ng/mL
- Tmax [4, 14]: 2 h
- half-life [4, 14]: 20.5 h
- kelim ([4]; T1 0.15 mg/kg, Arith. Mean): 0.0596 h⁻¹
- kelim ([4]; T1 0.15 mg/kg, Median): 0.0627 h⁻¹
- kelim ([4]; T5 0.75 mg/kg, Arith. Mean): 0.0357 h⁻¹
- kelim ([4]; T5 0.75 mg/kg, Median): 0.0338 h⁻¹
SMILES: CO[C@H]1C[C@@H]2CC[C@@H](C)[C@@](O)(O2)C(=O)C(=O)N2CCCC[C@H]2C(=O)O[C@H]([C@H](C)C[C@@H]2CC[C@@H](O)[C@H](OC)C2)CC(=O)[C@H](C)/C=C(\C)[C@@H](O)[C@@H](OC)C(=O)[C@H](C)C[C@H](C)/C=C/C=C/C=C/1C [rapamycin]
- solubility in water [1]: poorly soluble in water
- acid stability [2]: rapidly degrades within the typical gastric pH range
- Cmax [3, 5]: 2.26 ng/mL
- AUC(0-t) [3, 5]: 54 ng·h/mL
- Cmax [3, 6]: 2.85 ng/mL
- Tmax [3, 6]: 4 h
- AUC(0-t) [3, 6]: 41 ng·h/mL
- Cmax [3, 7]: 6.98 ng/mL
- Tmax [3, 7]: 2 h
- AUC(0-t) [3, 7]: 182 ng·h/mL
- Cmax [3, 8]: 4.4 ng/mL
- AUC(0-t) [3, 8]: 99.5 ng·h/mL
- Cmax [3, 9]: 8.07 ng/mL
- Tmax [3, 9]: 2 h
- AUC(0-t) [3, 9]: 248 ng·h/mL
- Cmax [3, 10]: 7.56 ng/mL
- Tmax [3, 10]: 2 h
- AUC(0-t) [3, 10]: 135 ng·h/mL
- clinical side effects and hematological changes (healthy dogs): did not cause significant clinical side effects or abnormal hematological changes
